The record followed here is patent publication US9475795B2 (TAKEDA PHARMACEUTICAL COMPANY LIMITED, priority 2012, dated 2016).

The target of this assay is human PKR1 receptors (Homo sapiens (Human), UniProt Q8TCW9). The assay can be described thus: PKR1 antagonist assay: block of PK1-mediated intracellular calcium release (FLIPR). As to conditions: RBL2H3 cells expressing human PKR1; 10 min preincubation; stimulation with PK1 at EC80; calcium fluorescence. The format is cell-based. As for the experimental part:
Prokineticin receptor 1 (PKR1) antagonists may be functionally assessed by measurement of change in intracellular calcium levels induced by Gq mediated increase in inositol triphosphate (IP3) levels. The ability of a compound to block the intracellular release of calcium mediated by PK1 in RBL2H3 cells expressing human PKR1 receptors is determined as a measure of the compound's antagonist activity in vitro.
Approximately 10,000 cells per assay well are seeded in normal culture medium in a 384 well plate (Corning). […]
To test for antagonist activity, test compounds at a final concentration range between 0.32 nM-10 μM (diluted in assay buffer) are added to the assay wells and allowed to incubate for 10 minutes prior to stimulation with PK1. After incubation with test compounds the assay plate is placed in a FLIPR Tetra (Molecular Devices) and PK1 (diluted in assay buffer) is added at the determined EC80 concentration (final). Ligand-dependent changes in intracellular calcium levels are determined by measuring changes in fluorescence of the dye at […] following excitation at 485 nm.

Chain of human PKR1 receptors (Q8TCW9 whole entry): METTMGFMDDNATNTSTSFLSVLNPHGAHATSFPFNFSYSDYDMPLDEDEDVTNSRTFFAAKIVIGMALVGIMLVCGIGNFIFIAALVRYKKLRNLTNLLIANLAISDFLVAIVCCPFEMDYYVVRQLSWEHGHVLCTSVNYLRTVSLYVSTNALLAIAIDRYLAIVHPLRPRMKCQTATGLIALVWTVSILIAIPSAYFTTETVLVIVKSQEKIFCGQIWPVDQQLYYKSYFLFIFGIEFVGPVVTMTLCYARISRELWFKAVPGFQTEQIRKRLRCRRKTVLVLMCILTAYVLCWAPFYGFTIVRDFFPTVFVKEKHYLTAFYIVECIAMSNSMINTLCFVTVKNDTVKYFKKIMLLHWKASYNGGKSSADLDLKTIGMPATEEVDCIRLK

With `Cc1nn(C)c(C)c1S(=O)(=O)N1CCC(N(C)c2ccc(Cl)cc2)CC1` [Example 53], the IC50 was determined as 900 nM.

For orientation: IC50 means the point on the concentration scale where inhibition reaches its midpoint.
